Data taken from US20260355188A1, “COMBINATION THERAPIES USING PRMT5 INHIBITORS AND BCL-2 FAMILY INHIBITORS FOR THE TREATMENT OF CANCER” (MIRATI THERAPEUTICS, INC., priority 2022, published 2026).

Key:
LU99 = assay: In vitro combination synergy, LU99 (Cell-Titer Glo); type: cell-based; details: combined with exemplary PRMT5 inhibitor, 120 h, sum of Loewe, Bliss, HSA and ZIP scores
Protocol: (§1) A panel of MTAP-deleted cancer cell lines was assembled to determine whether combining BCL-2 family inhibitors with exemplary PRMT5 inhibitors disclosed herein results in synergistic activity.
(§2) [Assays for determining the synergy score for the pairwise combinations for each cell line were performed in triplicate. 384 or 96-well plates plus additional wells of a separate 384 or 96-well control plate for determining baseline luminescence were seeded with cells of a particular MTAP-deleted cell line in a suitable growth medium for that cell line, e.g., RPMI 1640 medium supplemented with 10% FBS and any cell line specific reagents needed for growth. The plates were incubated overnight at 37 °C in a 5% CO2 atmosphere.
(§3) To each of the designated baseline wells, Cell-Titer Glo reagent (CTG; Promega Corporation) was added to each well and the plates were incubated for 20 min shaking at room temperature. Baseline luminescence was quantitated using a BMG ClarioStar multimode plate reader according to the manufacturer's instructions.
(§4) A series of 1000× drug dilutions in 100% DMSO was prepared that includes a 9-point single agent 3-fold dilution of the exemplary PRMT5 inhibitor (of the type described in WO2021/050915) with a top dose of 3000 nM (and a 6-point single agent 5-fold dilution of the BCL-2 family inhibitor with a top dose of 3000 nM as reference standards.
(§5) A 10× intermediate dosing plate was prepared in serum free medium that contains arrayed single agent dilutions of exemplary PRMT5 inhibitor (of the type described in WO2021/050915) and or the BCL-2 family inhibitor. In addition, a matrix of 54 dilution combinations of exemplary PRMT5 inhibitor (of the type described in WO2021/050915) and the BCL-2 family inhibitor was prepared as test samples.
(§6) To each corresponding well of the 384-well plates seeded with the appropriate cell line above, 10× single agent and the 54 combinations of the dose matrix was added and the plates were incubated for 120 hours at 37 °C in 5% CO2 atmosphere. Cell-Titer Glo reagent (CTG) was added to each test well, the plates were incubated for 20 min shaking at room temperature, and luminescence was quantitated using a BMG ClarioStar multimode plate reader according to the manufacturer's instructions. To normalize test samples, the determined baseline luminescence was subtracted from each test sample prior to analysis and mean values are calculated from replicate samples.
(§7) The output of the data from each mathematical model is the assignment of a relative synergy score. The data reported in Table 6 are the aggregate sum of the Loewe additivity, Bliss independence, Highest Single Agent and ZIP synergy scores (“Composite Synergy Score”).

[1] = test system: NCI-H1437 xenograft tumors; assay: In vivo combination study (NCI-H1437 model), Example 2; parameters: species or system female nu/nu mice; details: MRTX1719 and ABT-263 100 mg/kg PO QD, A-1331852 25 mg/kg PO QD, alone or combined
Excerpt: (§8) Immunodeficient female nu/nu mice were implanted with 5×10^6 LU99 cancer cells in 50% Matrigel. Tumor volume measurements were collected using calipers and determined utilizing the formula 0.5×L×W^2 in which L refers to length and W refers to width of each tumor. When tumors reached approximately 125-150 mm^3, animals were randomized to receive A) vehicle, B) a PRMT5 inhibitor, C) navitoclax (ABT-263), D) venetoclax (ABT-199), E) A-1331852, F) the PRMT5 inhibitor and navitoclax, F) the PRMT5 inhibitor and venetoclax, or G) the PRMT5 inhibitor and A-1331852 all administered orally (PO) with the indicated dose and schedule for 20-34 days. Tumor volume was measured twice a week (n=5/treatment group). Average tumor volume and standard error of the mean was calculated and plotted at each study day using GraphPad Prism.
Example 2 was carried out using NCI-H1437 cell line derived xenografts according to the in vivo study procedure described above in Example 1.
(§9) The PRMT5 inhibitor was MRTX1719 administered at 100 mg/kg once a day (QD). MRTX1719 is (2M)-2-(4-(4-(aminomethyl)-1-oxo-1,2-dihydrophthalazin-6-yl)-1-methyl-1H-pyrazol-5-yl)-4-chloro-6-cyclopropoxy-3-fluorobenzonitrile, disclosed as Example 16-8 at p. 307 of the international patent publication No. WO 2021/050915 A1, published 18 Mar. 2021, incorporated by reference in its entirety. The BCL-2 family inhibitor, ABT-263 (navitoclax), was administered at 100 mg/kg once a day (QD) and supplied by Selleck Chemicals (Houston, TX). The BCL-2 family inhibitor A-1331852 was administered at 25 mg/kg once a day (QD) and synthesized at Wuxi AppTec (Wuhan, China).

SW1573 xenograft tumors = assay: In vivo combination study (SW1573 model), Example 3; parameters: species or system female nu/nu mice; details: MRTX1719 and ABT-263 100 mg/kg PO QD, A-1331852 25 mg/kg PO QD, alone or combined
Excerpt: as §8
Example 3 was carried out in SW1573 cell line derived xenografts according to the in vivo study procedure described above in Example 1.
as §9

[2] = test system: NCI-H1650 xenograft tumors; assay: In vivo combination study (NCI-H1650 model), Example 5; parameters: species or system female nu/nu mice; details: MRTX1719 and ABT-263 100 mg/kg PO QD, A-1331852 25 mg/kg PO BID, alone or combined
Excerpt: as §8
Example 5 was carried out using NCI-H1650 cell line derived xenografts according to the in vivo study procedure described above in Example 1.
The PRMT5 inhibitor was MRTX1719 administered at 100 mg/kg once a day (QD). MRTX1719 is (2M)-2-(4-(4-(aminomethyl)-1-oxo-1,2-dihydrophthalazin-6-yl)-1-methyl-1H-pyrazol-5-yl)-4-chloro-6-cyclopropoxy-3-fluorobenzonitrile, disclosed as Example 16-8 at p. 307 of the international patent publication No. WO 2021/050915 A1, published 18 Mar. 2021, incorporated by reference in its entirety. The BCL-2 family inhibitor, ABT-263 (navitoclax), was administered at 100 mg/kg once a day (QD) and supplied by Selleck Chemicals (Houston, TX). The BCL-2 family inhibitor A-1331852 was administered at 25 mg/kg twice a day (BID) and synthesized at Wuxi AppTec (Wuhan, China).

Mero14 = assay: In vitro combination synergy, Mero14 (Cell-Titer Glo); type: cell-based; details: combined with exemplary PRMT5 inhibitor, 120 h, sum of Loewe, Bliss, HSA and ZIP scores
Protocol: as §1, §2, §3, §4, §5, §6, §7

Row | Structure (SMILES) | Average Tumor Volume ([1]; day 4) [mm^3] | Average Tumor Volume ([1]; day 7) [mm^3] | Average Tumor Volume ([1]; day 11) [mm^3] | Average Tumor Volume ([1]; day 14) [mm^3] | Average Tumor Volume ([1]; day 18) [mm^3] | Average Tumor Volume ([1]; day 21) [mm^3] | Average Tumor Volume ([1]; day 25) [mm^3] | Average Tumor Volume ([1]; day 28) [mm^3] | Average Tumor Volume ([1]; day 34) [mm^3] | Average Tumor Volume ([1]; day −1) [mm^3] | Average Tumor Volume (SW1573 xenograft tumors; day 3) [mm^3] | Average Tumor Volume (SW1573 xenograft tumors; day 6) [mm^3] | Average Tumor Volume (SW1573 xenograft tumors; day 10) [mm^3] | Average Tumor Volume (SW1573 xenograft tumors; day 13) [mm^3] | Average Tumor Volume (SW1573 xenograft tumors; day 17) [mm^3] | Average Tumor Volume (SW1573 xenograft tumors; day 20) [mm^3] | Average Tumor Volume (SW1573 xenograft tumors; day 26) [mm^3] | Average Tumor Volume (SW1573 xenograft tumors; day −1) [mm^3] | Average Tumor Volume ([2]; day 0) [mm^3] | Average Tumor Volume ([2]; day 5) [mm^3] | other results
1 | Cc1c(-c2ccc(N3CCc4cccc(C(=O)Nc5nc6ccccc6s5)c4C3)nc2C(=O)O)cnn1CC12CC3CC(CC(C3)C1)C2 [A-1331852] | 171 | 191 | 248 | 300 | 332 | 376 | 467 | 564 | 683 | 139 | 209 | 250 | 271 | 305 | 421 | 456 | 609 | 125 | 143 | 163 | Composite Synergy Score (LU99): 64; Average Tumor Volume ([2]; day 8): 189 mm^3; Average Tumor Volume ([2]; day 13): 255 mm^3; Average Tumor Volume ([2]; day 15): 291 mm^3; Average Tumor Volume ([2]; day 19): 347 mm^3; Average Tumor Volume ([2]; day 22): 366 mm^3; Composite Synergy Score (Mero14): 28
2 | Cn1ncc(-c2ccc3c(=O)[nH]nc(CN)c3c2)c1-c1c(F)c(Cl)cc(OC2CC2)c1C#N (atropisomer, axis not shown; (M)) [MRTX1719, (2M)-2-(4-(4-(aminomethyl)-1-oxo-1,2-dihydrophthalazin-6-yl)-1-methyl-1H-pyrazol-5-yl)-4-chloro-6-cyclopropoxy-3-fluorobenzonitrile] | 200 | 244 | 268 | 288 | 316 | 322 | 340 | 362 | 441 | 139 | 172 | 220 | 229 | 242 | 319 | 387 | 444 | 126 | 149 | 246 | Average Tumor Volume ([2]; day 8): 292 mm^3; Average Tumor Volume ([2]; day 13): 344 mm^3; Average Tumor Volume ([2]; day 15): 398 mm^3; Average Tumor Volume ([2]; day 19): 469 mm^3; Average Tumor Volume ([2]; day 22): 510 mm^3
3 | CC1(C)CCC(c2ccc(Cl)cc2)=C(CN2CCN(c3ccc(C(=O)NS(=O)(=O)c4ccc(N[C@H](CCN5CCOCC5)CSc5ccccc5)c(S(=O)(=O)C(F)(F)F)c4)cc3)CC2)C1 [ABT-263, navitoclax] | 172 | 192 | 244 | 269 | 288 | 299 | 389 | 420 | 472 | 138 | 265 | 328 | 395 | 536 | 678 | 809 | 1133 | 123 | 155 | 186 | Composite Synergy Score (LU99): 41; Average Tumor Volume ([2]; day 8): 210 mm^3; Average Tumor Volume ([2]; day 13): 302 mm^3; Average Tumor Volume ([2]; day 15): 319 mm^3; Average Tumor Volume ([2]; day 19): 339 mm^3; Average Tumor Volume ([2]; day 22): 371 mm^3; Composite Synergy Score (Mero14): 18
